The values that follow come from patent US10865191B2, “Heterocyclic compounds useful as modulators of TNF alpha” (BRISTOL-MYERS SQUIBB COMPANY, priority 2015, dated 2020).

SMILES strings stand for the structures.

By IC50 is commonly meant the point on the concentration scale where inhibition reaches its midpoint.

The assay has as its target TNFα (Homo sapiens, UniProt P01375). The assay can be described thus: TNF induced HEK-Blue assay (NF-kB-driven secreted alkaline phosphatase reporter). The following applies: TNFα 0.5 ng/mL, HEK-Blue-CD40L cells, 18 h; read-out: TNF induced HEK-Blue assay IC50 value. It is filed as cell-based. Summed up:
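HEK-Blue-CD40L cells (NF-kB-driven SEAP reporter), 20,000/well, added after 30 min pre-incubation of compound (0.004–25 μM final) with TNFα 0.5 ng/mL final at 37 °C; 18 h incubation. SEAP read with QUANTI-Blue at 620 nm; IC50 from 4-parameter logistic fit, normalized to unstimulated and stimulated DMSO controls.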

TNFα, sequence (P01375 77-233 limits assumed): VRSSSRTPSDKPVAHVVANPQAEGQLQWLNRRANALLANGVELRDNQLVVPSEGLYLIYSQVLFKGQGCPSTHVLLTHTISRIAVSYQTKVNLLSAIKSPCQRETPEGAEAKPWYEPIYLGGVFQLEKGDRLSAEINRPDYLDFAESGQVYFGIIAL

In the case of `CC(Nc1c(Cl)cnc2cc(F)c(-c3ccc(C4COCCN4)cc3)cc12)c1ccccc1F` (single isomer, unassigned) [Example 598, 3-chloro-7-fluoro-N-(1-(2-fluorophenyl)ethyl)-6-(4-(morpholin-3-yl)phenyl)quinolin-4-amine], the IC50 is 1 to 10 µM.
The value for `C[C@@H](Nc1c(Cl)cnc2ccc(-c3cnc(C(C)(C)O)nc3)cc12)c1cc(C(O)CO)ccc1F` (single isomer, unassigned) [Example 400] was less than 1 µM.
The value for `CC(Nc1c(Cl)cnc2cc(F)c(-c3ccc(C(O)CN4CCOCC4)cc3)cc12)c1ccccc1F` (stereo not drawn) [Example 277, 1-(4-(3-chloro-7-fluoro-4-((1-(2-fluorophenyl)ethyl)amino)quinolin-6-yl)phenyl)-2-morpholinoethan-1-ol] was less than 1 µM; that for `Cc1ccc(C)c(Nc2c(Cl)c(CN)nc3ccc(-c4ccc(C#N)nc4)cc23)c1` [Example 43, 5-(2-(aminomethyl)-3-chloro-4-((2,5-dimethylphenyl)amino)quinolin-6-yl)picolinonitrile] was 1 to 10 µM; that for `COc1ccccc1-c1ccc(F)c([C@@H](C)Nc2c(Cl)cnc3ccccc23)c1` [Example 549, (R)-3-chloro-N-(1-(4-fluoro-2′-methoxy-[1,1′-biphenyl]-3-yl)ethyl)quinolin-4-amine] was 1 to 10 µM.
In the case of `COc1cccc([C@@H](C)Nc2c(Cl)cnc3ccccc23)c1` [Example 462, (R)-3-chloro-N-(1-(3-methoxyphenyl)ethyl)quinolin-4-amine] it was 10 to 25 µM; in that of `Cc1ccc(C)c(Nc2c(C)c(O)nc3ccc(-c4cnc(C(C)(C)O)nc4)cc23)c1` [Example 181, 4-((2,5-dimethylphenyl)amino)-6-(2-(2-hydroxypropan-2-yl)pyrimidin-5-yl)-3-methylquinolin-2-ol], 10 to 25 µM.
As for `Cc1nc2cc(F)c(-c3cnc(N4CCNC(=O)C4)nc3)cc2c(N[C@H](C)c2cc(C#N)ccc2F)c1Cl` [Example 561, (R)-3-(1-((3-chloro-7-fluoro-2-methyl-6-(2-(3-oxopiperazin-1-yl)pyrimidin-5-yl)quinolin-4-yl)amino)ethyl)-4-fluorobenzonitrile], the concentration for half-maximal inhibition (IC50) was less than 1 µM.
In the case of `COc1ncc(-c2ccc(F)c([C@@H](C)Nc3c(Cl)cnc4ccccc34)c2)cn1` [Example 543, (R)-3-chloro-N-(1-(2-fluoro-5-(2-methoxypyrimidin-5-yl)phenyl)ethyl)quinolin-4-amine], the IC50 lay in the range of 10 to 25 µM.
The value for `C[C@@H](Nc1c(Cl)cnc2ccc(-c3ccc(N4CCNCC4)nc3)cc12)c1ccccc1F` [Example 88, (R)-3-chloro-N-(1-(2-fluorophenyl)ethyl)-6-(6-(piperazin-1-yl)pyridin-3-yl)quinolin-4-amine] was 1 to 10 µM; that for `CC(C)(O)c1ncc(-c2nc3c(N[C@@H](c4cc(C#N)ccc4F)C(F)F)c(Cl)cnc3cc2F)cn1` [Example 498, (S)-3-(1-((3-chloro-7-fluoro-6-(2-(2-hydroxypropan-2-yl)pyrimidin-5-yl)-1,5-naphthyridin-4-yl)amino)-2,2-difluoroethyl)-4-fluorobenzonitrile] was less than 1 µM.
The value for `C[C@@H](Nc1c(Cl)cnc2ccccc12)c1cc(-c2cccnc2N)ccc1F` [Example 512, (R)—N-(1-(5-(2-aminopyridin-3-yl)-2-fluorophenyl)ethyl)-3-chloroquinolin-4-amine] was 10 to 25 µM.
In the case of `Cc1nc2ccc(-c3cnc(C(C)(C)O)nc3)cc2c(C(O)C(C)CC(C)C)c1Cl` (single isomer, unassigned) [Example 355, 1-(3-Chloro-6-(2-(2-hydroxypropan-2-yl)pyrimidin-5-yl)-2-methylquinolin-4-yl)-2,4-dimethylpentan-1-ol] it was 1 to 10 µM; in that of `CC(C)(O)c1ncc(-c2nc3c(N[C@@H](c4cc(C(N)=O)ccc4F)C(F)F)c(Cl)cnc3cc2F)cn1` [Example 493, (S)-3-(1-((3-chloro-7-fluoro-6-(2-(2-hydroxypropan-2-yl)pyrimidin-5-yl)-1,5-naphthyridin-4-yl)amino)-2,2-difluoroethyl)-4-fluorobenzamide], less than 1 µM; in that of `C[C@@H](Nc1c(Cl)cnc2ccccc12)c1cc(-c2cnn(CCN3CCOCC3)c2)ccc1F` [Example 480, (R)-3-chloro-N-(1-(2-fluoro-5-(1-(2-morpholinoethyl)-1H-pyrazol-4-yl)phenyl)ethyl)quinolin-4-amine], 10 to 25 µM.
Take `CC#CC(=O)N1CCN(c2ccc(-c3ccc4ncc(Cl)c(N[C@H](C)c5ccccc5F)c4c3)cn2)CC1` [Example 125, (R)-1-(4-(5-(3-chloro-4-((1-(2-fluorophenyl)ethyl)amino)quinolin-6-yl)pyridin-2-yl)piperazin-1-yl)but-2-yn-1-one]: the concentration for half-maximal inhibition (IC50) was less than 1 µM.
In the case of `Cc1ccc(C)c(NCc2nc3ccc(-c4ccc(C#N)nc4)cc3c(Nc3cc(C)ccc3C)c2Cl)c1` [Example 3, 5-(3-chloro-4-((2,5-dimethylphenyl)amino)-2-(((2,5-dimethylphenyl)amino)methyl)quinolin-6-yl)picolinonitrile], the 50% inhibitory concentration (IC50) is 1 to 10 µM.
Take `Cc1nc2ccc(-c3cnc(C(C)(C)O)nc3)cc2c(N[C@@H](c2cc(C#N)ccc2F)C(F)F)c1Cl` [Example 380, (S)-3-(1-((3-chloro-6-(2-(2-hydroxypropan-2-yl)pyrimidin-5-yl)-2-methylquinolin-4-yl)amino)-2,2-difluoroethyl)-4-fluorobenzonitrile]: the concentration for half-maximal inhibition (IC50) was less than 1 µM.
The value for `CC(C)(O)c1ccc(-c2cc3c(N[C@@H](c4ccccc4F)C(F)F)c(Cl)cnc3cc2F)cn1` [Example 270, (S)-2-(5-(3-chloro-4-((2,2-difluoro-1-(2-fluorophenyl)ethyl)amino)-7-fluoroquinolin-6-yl)pyridin-2-yl)propan-2-ol] was less than 1 µM.
The value for `C[C@@H](Nc1c(Cl)cnc2ccc(-c3cnc(C(C)(C)O)nc3)cc12)c1cc(C2=CCNCC2)ccc1F` [Example 338, (R)-2-(5-(3-chloro-4-((1-(2-fluoro-5-(1,2,3,6-tetrahydropyridin-4-yl)phenyl)ethyl)amino)quinolin-6-yl)pyrimidin-2-yl)propan-2-ol] was less than 1 µM; that for `CC(Nc1c(Cl)cnc2cc(F)c(-c3ccc(C(O)CO)cc3)cc12)c1cc(C(N)=O)ccc1F` (single isomer, unassigned) [Example 601, 3-(1-((3-chloro-6-(4-(1,2-dihydroxyethyl)phenyl)-7-fluoroquinolin-4-yl)amino)ethyl)-4-fluorobenzamide] was less than 1 µM; that for `CC(Nc1c(Cl)cnc2ccc(-c3ccc(C(C)(C)O)cc3)cc12)c1cocn1` (racemic) [Example 206, 2-(4-(3-chloro-4-((1-(oxazol-4-yl)ethyl)amino)quinolin-6-yl)phenyl)propan-2-ol] was 10 to 25 µM.
In the case of `C[C@@H](Nc1c(Cl)cnc2ccccc12)c1cc(-c2cnc(N(C)C)nc2)ccc1F` [Example 536, (R)-3-chloro-N-(1-(5-(2-(dimethylamino)pyrimidin-5-yl)-2-fluorophenyl)ethyl)quinolin-4-amine] it was 1 to 10 µM.
Regarding `CC(Nc1c(Cl)cnc2ccc(-c3ccc(C(C)(C)O)cc3)cc12)c1cnn(C)c1` (racemic) [Example 197, 2-(4-(3-chloro-4-((1-(1-methyl-1H-pyrazol-4-yl)ethyl)amino)quinolin-6-yl)phenyl)propan-2-ol], the IC50 lay in the range of 10 to 25 µM.
In the case of `CC(Nc1c(Cl)cnc2ccc(-c3ccc(C(C)(C)O)cc3)cc12)c1ncccc1F` (racemic) [Example 170, 2-(4-(3-chloro-4-((1-(3-fluoropyridin-2-yl)ethyl)amino)quinolin-6-yl)phenyl) propan-2-ol] it was less than 1 µM.
As to `Fc1ccc(Br)cc1[C@H](Nc1c(Cl)cnc2ccccc12)C(F)F` [Example 509, (S)—N-(1-(5-bromo-2-fluorophenyl)-2,2-difluoroethyl)-3-chloroquinolin-4-amine], the IC50 fell in the range of 1 to 10 µM.
In the case of `C[C@@H](Nc1c(Cl)cnc2ccccc12)c1cc(-c2ccncc2)ccc1F` [Example 468, (R)-3-chloro-N-(1-(2-fluoro-5-(pyridin-4-yl)phenyl)ethyl)quinolin-4-amine], the IC50 fell in the range of 1 to 10 µM.
The value for `CC(Nc1c(Cl)cnc2ccc(-c3cnc(N4CCNC(=O)C4)nc3)cc12)c1nc(C(=O)Nc2ccccc2)ccc1F` (racemic) [Example 38, 6-(1-((3-chloro-6-(2-(3-oxopiperazin-1-yl)pyrimidin-5-yl)quinolin-4-yl)amino)ethyl)-5-fluoro-N-phenylpicolinamide] was 1 to 10 µM; that for `C[C@@H](Nc1c(Cl)cnc2ccccc12)c1cc(OCCCO)ccc1F` [Example 458, (R)-3-(3-(1-((3-chloroquinolin-4-yl)amino)ethyl)-4-fluorophenoxy)propan-1-ol] was 1 to 10 µM.
In the case of `Cc1nc2c(F)cc(-c3cnc(C(C)(C)O)nc3)cc2c(N[C@H](C)c2cc(C#N)ccc2F)c1Cl` [Example 302, (R)-3-(1-((3-chloro-8-fluoro-6-(2-(2-hydroxypropan-2-yl)pyrimidin-5-yl)-2-methylquinolin-4-yl)amino)ethyl)-4-fluorobenzonitrile] it was less than 1 µM.
In the case of `Cc1cc(-c2ccc(F)c([C@@H](C)Nc3c(Cl)cnc4ccccc34)c2)cnn1` [Example 477, (R)-3-chloro-N-(1-(2-fluoro-5-(6-methylpyridazin-4-yl)phenyl)ethyl)quinolin-4-amine] it was 1 to 10 µM.
Turning to `Cc1nc2ccc(-c3cnc(C(C)(C)O)nc3)cc2c(N[C@H](C)c2cc(N3CCCC3=O)ccc2F)c1Cl` [Example 361, (R)-1-(3-(1-((3-chloro-6-(2-(2-hydroxypropan-2-yl)pyrimidin-5-yl)-2-methylquinolin-4-yl)amino)ethyl)-4-fluorophenyl)pyrrolidin-2-one], the concentration for half-maximal inhibition (IC50) is less than 1 µM.
For `Cc1nc2ccccc2c(N[C@H](C)c2cc(-c3cccnc3)ccc2F)c1Cl` [Example 531, (R)-3-chloro-N-(1-(2-fluoro-5-(pyridin-3-yl)phenyl)ethyl)-2-methylquinolin-4-amine], the concentration for half-maximal inhibition (IC50) is less than 1 µM.
